Values of other authors in patent US9675546B2, “Method of treating atrophic vaginitis” (priority 2006, dated 2017).
Read-outs that look alike come from different tables or passages of the source.

Legend:
[1] = not given; remark: listed apart in the source
breast cancer risk = settings: progestogen combined with estrogens in HRT users
[2] = not given; remark: listed apart in the source
[3] = single oral dose of 20 mg tamoxifen

Row | Structure (SMILES) | Time to steady state concentrations after initiation of therapy (oral) | Average steady state plasma concentration (oral, once daily for 3 months) | Average peak plasma concentration [3] | Time of peak plasma concentration after dosing [3] | Cardiovascular Events ([1]; in vivo) | Glucose/Insulin ([1]; in vivo) | Lipid Profile ([1]; in vivo) | Liver function ([1]; in vivo) | Sleep and Mood ([1]; in vivo) | Quality of life/menopausal symptoms: women with significant improvement in symptoms ([1]; MP-containing HRT compared with MPA-containing regimen) | Risk of breast cancer (RR) (breast cancer risk) | Serum concentration ([2]; 25 mg progesterone vaginal suppository) | Serum concentration ([2]; 50 mg progesterone vaginal suppository)
1 | CC/C(=C(\c1ccccc1)c1ccc(OCCN(C)C)cc1)c1ccccc1 [tamoxifen, 1-(p-dimethylamino-ethoxphenyl)-2-ethyl-1,2-diphenylethylene] | about 4 weeks | 122 ng/mL | 40 ng/mL | approximately 5 hours | – | – | – | – | – | – | – | – | –
2 | CC(=O)O[C@]1(C(C)=O)CC[C@H]2[C@@H]3C[C@H](C)C4=CC(=O)CC[C@]4(C)[C@H]3CC[C@@]21C [MPA, Medroxyprogesterone Acetate] | – | – | – | – | MPA: may cause fluid retention and edema, increases incidence | MPA: has been found to cause deterioration of glucose tolerance | MPA: adversely effects lipid profile and negates the beneficial | MPA: contraindicted in patients with liver dysfunction. | MPA: can cause insomnia, mental depression, and anxiety. | – | – | – | –
3 | CC(=O)[C@H]1CC[C@H]2[C@@H]3CCC4=CC(=O)CC[C@]4(C)[C@H]3CC[C@]12C [progesterone, pregn-4-ene-3, 20-dione] | – | – | – | – | MP: has antihypertensive action and can be safely used to treat | MP: augments the pancreatic response to glucose and increases | – | MP: does not effect liver enzymes or cause livie related side | MP: improves the quality of sleep and has sedative properties. | symptoms in 80%. | 0.9 | 7.27 ng/mL | 8.84 ng/mL
